We go through two molecules from paper PMC5587309, “Involvement of arginine 878 together with Ca^2+ in mouse aminopeptidase A substrate specificity for N-terminal acidic amino-acid residues” (PLoS ONE, 2017).

Where a chain is given by its changes, count along the chain named.

Common to all, as to type: biochemical
Assay [1] has as its target T1, wild-type mAPA (Mus musculus, UniProt P16406).
T1 construct: made in house; host or cells: stably transfected CHO-K1 cells
T1 sequence (P16406 1-945): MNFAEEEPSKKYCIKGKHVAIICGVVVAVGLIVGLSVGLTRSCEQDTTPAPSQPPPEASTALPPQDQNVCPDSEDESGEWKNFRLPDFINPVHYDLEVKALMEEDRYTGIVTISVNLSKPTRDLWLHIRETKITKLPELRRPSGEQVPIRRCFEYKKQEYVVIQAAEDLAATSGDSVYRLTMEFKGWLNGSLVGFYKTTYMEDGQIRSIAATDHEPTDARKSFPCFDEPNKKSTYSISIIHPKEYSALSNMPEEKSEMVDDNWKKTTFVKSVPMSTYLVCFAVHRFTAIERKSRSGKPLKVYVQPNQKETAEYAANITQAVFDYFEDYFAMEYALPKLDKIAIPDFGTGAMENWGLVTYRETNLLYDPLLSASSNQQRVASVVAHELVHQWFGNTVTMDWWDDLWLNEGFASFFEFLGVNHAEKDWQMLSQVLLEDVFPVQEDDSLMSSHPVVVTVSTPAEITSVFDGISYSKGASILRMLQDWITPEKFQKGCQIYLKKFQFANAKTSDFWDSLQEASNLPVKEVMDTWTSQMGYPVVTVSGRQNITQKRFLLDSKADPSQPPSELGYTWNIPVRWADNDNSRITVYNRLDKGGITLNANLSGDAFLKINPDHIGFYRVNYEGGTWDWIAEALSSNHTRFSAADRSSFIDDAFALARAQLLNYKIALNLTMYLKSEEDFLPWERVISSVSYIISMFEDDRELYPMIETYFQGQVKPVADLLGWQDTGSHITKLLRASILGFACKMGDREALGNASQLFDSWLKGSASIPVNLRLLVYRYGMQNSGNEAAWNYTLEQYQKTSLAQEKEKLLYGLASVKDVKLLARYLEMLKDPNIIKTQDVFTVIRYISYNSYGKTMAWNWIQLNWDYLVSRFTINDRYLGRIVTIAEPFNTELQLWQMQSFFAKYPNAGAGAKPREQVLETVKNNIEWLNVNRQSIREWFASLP
Put plainly: Inhibition of GluNA hydrolysis by purified recombinant wild-type His-mAPA. Here is the method:
(§1) Enzyme assays were carried out for wild-type and mutated His-mAPAs in 50 mM Tris-HCl buffer, pH 7.4, with or without 4 mM CaCl2, by monitoring the rate of hydrolysis of GluNA, as previously described. The sensitivity to Ca^2+ of purified wild-type and mutated His-mAPA was determinated by incubating 0.5 mM GluNA with 0 to 4 mM CaCl2 in a final volume of 100 μl of 50 mM Tris-HCl buffer, pH 7.4. All the assays were performed in black 96-well plates (solid black 96-well flat-bottomed non-treated plates with no lid; Corning Costar). All of the enzymatic studies were performed such that substrate hydrolysis rates were maintained below 10% (initial rate conditions). The kinetic curves were monitored by following the increase in fluorescence at 460 nm (lex = 330 nm), induced by the release of the β-naphthylamide fluorogenic part of the substrate by APA. Fluorescence signals were monitored by counting photons with a spectrophotometer (Fusion universal microplate analyser; Packard) equipped with a temperature control device and a plate shaker. The kinetic parameters (Km and kcat) were determined from Michaelis-Menten plots, using GraphPad Prism 4 software (GraphPad) with a final concentration of substrate (GluNA) from 0.005 to 5 mM with or without 4 mM Ca^2+. For evaluation of the substrate specificity of APA with or without 4 mM Ca^2+, the rate of hydrolysis of […] additional substrates, α-L-aspartate-β-naphthylamide (AspNA), α-L-alanine-β-naphthylamide (AlaNA) and basic α-L-lysine-β-naphthylamide (LysNA), was determined under the same experimental conditions as described for GluNA. The sensitivity of wild-type and mutated His-mAPAs to inhibition by [(3S)-3-amino-4-sulfanyl-butane-1-sulfonic acid] (EC33), glutamate-thiol (GluSH), glutamate-phosphonic-acid (GluPO3H2), methionine-thiol (MetSH) and lysine-thiol (LysSH) was determined by establishing dose-dependent inhibition curves for a final GluNA concentration of 0.5 mM in the presence or absence of 4 mM CaCl2. These compounds being linear competitive inhibitors, their Ki were calculated from the formula Ki = IC50/ (1+ [GluNA]/Km).

The next assay deals with T2, R878A mutated mAPA (Mus musculus, UniProt P16406, R878A).
T2 construct: made in house; host or cells: stably transfected CHO-K1 cells
T2 sequence (P16406 1-945 R878A): T1 sequence (P16406 1-945) with R878A
Briefly: Inhibition of GluNA hydrolysis by purified recombinant R878A His-mAPA. Here is the method:
as §1

The next assay concerns the target T3, R878K mutated mAPA (Mus musculus, UniProt P16406, R878K).
T3 construct: made in house; host or cells: stably transfected CHO-K1 cells
T3 sequence (P16406 1-945 R878K): T1 sequence (P16406 1-945) with R878K
Put plainly: Inhibition of GluNA hydrolysis by purified recombinant R878K His-mAPA. Here is the method:
as §1

The target of assay [2] is T1, wild-type mAPA. Briefly: Ca2+ activation profile of GluNA hydrolysis by wild-type His-mAPA. Particulars: 0.5 mM GluNA. Here is the method: Enzyme assays were carried out for wild-type and mutated […] 50 mM Tris-HCl buffer, pH 7.4, with or without 4 mM CaCl2, by monitoring the rate of hydrolysis of GluNA, as previously described. The sensitivity to Ca^2+ of purified wild-type and mutated His-mAPA was determinated by incubating 0.5 mM GluNA with 0 to 4 mM CaCl2 in a final volume of 100 μl of 50 mM Tris-HCl buffer, pH 7.4. All the assays were performed in black 96-well plates (solid black 96-well flat-bottomed non-treated plates with no lid; Corning Costar). All of the enzymatic studies were performed such that substrate hydrolysis rates were maintained below 10% (initial rate conditions). […] Fluorescence signals were monitored by counting photons with a spectrophotometer (Fusion universal microplate analyser; Packard) equipped with a temperature control device and a plate shaker. […] Fig 3 Effects of the divalent cation Ca^2+ on recombinant wild-type and mutated mouse APAs enzymatic activities. Purified mAPAs (2 μg) were incubated at 37°C for 30 min with 0.5 mM GluNA with various concentrations of CaCl2 in a final volume of 100 μl of 50 mM Tris-HCl buffer (pH7.4). (A), APA enzymatic activities expressed as a percentage of maximal hydrolysis velocity obtained with 4 mM Ca^2+ for each purification vs log of Ca^2+ concentration. (B), Effect of increasing Ca^2+ concentration on APA enzymatic activities.

`N[C@@H](CCC(=O)O)P(=O)(O)O` [GluPO3H2, (4R)-4-amino-4-phosphonobutanoic acid]: the inhibition constant (Ki) (in general, the equilibrium dissociation constant of an inhibitor or competing ligand from its target) on wild-type mAPA [1] came to 0.074 ± 0.0077 µM; at R878A mutated mAPA, 6.5 ± 0.24 µM; on R878K mutated mAPA, 0.619 ± 0.021 µM. Also, the “times less efficiently inhibited than wild-type” value is given as 87 times on R878A mutated mAPA (R878A mAPA, presence of Ca2+) and 8 times on R878K mutated mAPA (R878K mAPA, presence of Ca2+).
For `[Ca+2].[Cl-].[Cl-]` [Ca^2+], at wild-type mAPA [2] (0 to 4 mM CaCl2, read-out: EC50 of activation of enzymatic activity), the EC50 (usually the midpoint of the concentration-response curve) was 22 ± 5 µM. For the same molecule, at wild-type mAPA [2] (Ca2+ concentration raised from 0 to 4 mM), the “increase of enzymatic activity” value is 7 fold.
